# System: Escherichia coli MV1184
# Experiment: MIC/MBC determination, sterilizing effect (microplate, BHI liquid medium)
# Format: cell-based
# Conditions: E. coli MV1184; substance 12.5 to 20 ppm, sodium chlorite about 0.14 mM to 0.22 mM
row,Compound,sterilizing action (sterilizing effect) of drug made from the substance and sodium chlorite
1,CCCCCCCCCCCCCCCCCC[N+](C)(C)Cc1ccccc1.[Cl-],has a sterilizing action (sterilizing effect)
2,Cl.N [Ammonium chloride],has a sterilizing action (sterilizing effect)
3,N[C@@H](CC(=O)O)C(=O)O [L-aspartate],has a sterilizing action (sterilizing effect)
4,N[C@@H](CO)C(=O)O [L-serine],has a sterilizing action (sterilizing effect)
5,CCCC[N+](CCCC)(CCCC)CCCC.[Cl-] [Tetrabutylammonium chloride],has a sterilizing action (sterilizing effect)
6,NCC(=O)O [glycine],has a sterilizing action (sterilizing effect)
7,CN.Cl [methylammonium chloride],has a sterilizing action (sterilizing effect)
8,O=C(O)[C@@H]1CCCN1 [proline],has a sterilizing action (sterilizing effect)
9,benzethonium chloride,has a sterilizing action (sterilizing effect)
10,oxidized glutathione,has a sterilizing action (sterilizing effect)

# System: not listed separately
# Experiment: Lewis acidity measuring method (1): rate of oxidation of CoTPP by O2 in the presence of the Lewis acid
# Format: physicochemical
# Conditions: not given
row,Compound,"kcat, reaction rate constant of reaction between CoTPP and oxygen in the presence of a Lewis acid"
1,CCCC[N+](CCCC)(CCCC)CCCC.F[P-](F)(F)(F)(F)F [tetrabutylammonium hexafluorophosphate],>0.1 M^−2 s^−1

# Same assay, conditions: acetonitrile, saturated O2, room temperature
row,Compound,"kcat, reaction rate constant of reaction between CoTPP and oxygen in the presence of a Lewis acid"
1,CCCCCCCCCCCCCCCCCC[N+](C)(C)Cc1ccccc1.[Cl-],0.18 M^−2 s^−1

# Same assay, conditions: calculated from rate of oxidization of CoTPP with O2
row,Lewis acidity (ΔE value),Compound
1,0.52 eV,CCCCCCCCCCCCCCCCCC[N+](C)(C)Cc1ccccc1.[Cl-]
2,0.51 eV,CC(=O)OCC[N+](C)(C)C [Acetylcholine]
3,0.54 eV,CC[N+](CC)(CC)Cc1ccccc1.[Cl-] [Benzyltriethyl ammonium chloride]
4,0.67 eV,C[N+](C)(C)CC(=O)O [Betaine]
5,0.52 eV,C[N+](C)(C)CCOC(N)=O [Carbamylcholine]
6,0.67 eV,Cc1cc2nc3cc(C)c(N)cc3[n+](-c3ccccc3)c2cc1N.[Cl-] [Safranine]
7,0.69 eV,C[n+]1cccc(C(=O)[O-])c1 [Trigonelline]

row,Compound,Lewis acidity (ΔE value)
1,Cl.N [Ammonium chloride],0.66 eV
2,CCCC[N+](CCCC)(CCCC)CCCC.[Cl-] [Tetrabutylammonium chloride],0.63 eV
3,C[N+](C)(C)C.[Cl-] [Tetramethylammonium chloride],0.50 eV
4,CN.Cl [methylammonium chloride],0.70 eV
5,C[n+]1ccccc1C=NO.[I-] [pralidoxime methyl iodide],0.60 eV

# Source: patent publication US20200171118A1
